The results in this text go back to US4720493A, “Thienylthiazole compounds” (Yoshitomi Pharmaceutical Industries, Ltd., priority 1984, dated 1988).

Counter-ions that a name gives are not always drawn.

One series deals with hypoxia. Briefly: Effect on hypoxia (survival time). Type of series: in vivo, female dd-strain mice. To be noted: 30 mg/kg p.o., 30 min before hypoxia 200 mmHg, mice. The protocol: According to the method of Nakanishi et al described in Life Science, vol. 13, p. 467, 1973, 30 mg/kg of test compounds were orally administered to groups of six female dd-strain mice and 30 minutes later the survival time, i.e. time required until respiratory failure, was measured under the hypoxia condition of 200 mmHg. The extention of the survival time against the control group was expressed as a percentage and the results are summarized in Table 3.

The next series concerns gastric secretion. Briefly: Effect on gastric secretion (Shay pylorus ligation). Particulars: 10 mg/kg s.c., pylorus-ligated female Wistar rats, 4 hours. Type of series: in vivo. The protocol: The experiment was performed according to the method of Shay et al described in Gastroenterology, vol 5, p. 43, 1945.
Groups of ten female Wistar rats, weighing 130.200 g, were deprived of food and the abdomen of each rat was incised and the pylorus ligated under ether anesthesia. Immediately after pylorus ligation, 10 mg/kg of test compounds were subcutaneously administered. After 4 hours, the gastric contents were collected and centrifuged. The supernatant was regarded as volume of gastric secretion. The acidity of gastric juice was determined by titrating the gastric juice with 0.1N sodium hydroxide to pH 7.0 with an automatic titrator (Kyoto Denshi Kogyo K.K., AT-107).
The percent inhibitions (%) of the compounds of the present invention on volume of gastric juice secretion and acidity of gastric juice were calculated and the results are summarized in Table 1.

A further series is described as follows: Toxicity. Type of series: in vivo, ddY-mice. The source says:
Compounds of Examples 5, 11, 14, 15 and 55 were orally or intraperitoneally administered to groups of five ddY-mice.

A further series has as its system gastric mucous membrane. In words: Effect on injury of gastric mucous membrane (ethanol). Format: in vivo, male Wistar rats. Particulars: 30 min before ethanol 5 ml/kg p.o. On the procedure: Male Wistar rats, weighing 170-250 g, were deprived of food for 48 hours and water for 24 hours and then test compounds were intraperitoneally administered. Thirty minutes after administration of test compounds, 5 ml/kg of ethanol was orally administered. One hour later the stomach of each rat was excised and inflated with 8 ml of a 3% formalin solution. The stomach was incised along the greater curvature and the area (mm^2) of gastric injury were measured and summed. The square root of the sum was used as an ulcer index.

A further series concerns tonic seizure. In words: Antianxiety effect (bicuculline-induced tonic seizure). To be noted: Mus musculus, po, 1 hour before bicuculline 0.6 mg/kg i.v., male ddY-mice; read-out: ED50 (prevention of tonic seizure in half of the animals). Type of series: in vivo. The protocol:
Test compounds were orally administered to groups of seven male ddY-mice and an hour later 0.6 mg/kg of bicuculline was intraveneously administered. […] The ED50 (mg/kg) was calculated by the probit method as the dose which is sufficient to prevent tonic seizure in half of the animals.

For `CC(=O)NCc1ccc(-c2csc(N)n2)s1.Cl` [Example 1, 2-amino-4-(5-acetylaminomethyl-2-thienyl)thiazole hydrochloride], in the series on hypoxia, the “Extention of the survival time (percentage, against control group)” value stood at 280%.
`CCN(CC)Cc1ccc(-c2csc(N)n2)s1.O=C(O)/C=C/C(=O)O` [Example 4, 2-Amino-4-(5-diethylaminomethyl-2-thienyl)thiazole fumarate]: in the series on gastric secretion, the “Percent inhibition of acidity of gastric juice” value is reported as 38% and the “Percent inhibition of volume of gastric juice secretion” value is recorded as 65%.
In the case of `Nc1nc(-c2ccc(CN3CCOCC3)s2)cs1` [Example 5, 2-Amino-4-(5-morpholinomethyl-2-thienyl)thiazole], the “Extention of the survival time (percentage, against control group)” value in the series with hypoxia came to 367%. In “Toxicity” (in vivo), the “survival of mice, intraperitoneal” value is given as “All mice survived” and the “survival of mice, oral” value is reported as “All mice survived”. Also, in the series with gastric secretion, the “Percent inhibition of acidity of gastric juice” value stood at 22% and the “Percent inhibition of volume of gastric juice secretion” value is 66%.
With `Nc1nc(-c2ccc(CN3CCCCC3)s2)cs1.O=C(O)/C=C/C(=O)O` [Example 6, 2-Amino-4-(5-piperidinomethyl-2-thienyl)thiazole fumarate], the “Extention of the survival time (percentage, against control group)” value in the series with hypoxia is 278%. For the same molecule, the “Percent inhibition (ulcer index, against control group)” value with gastric mucous membrane (10 mg/kg i.p.) was 59%.
On to `CC(C)NCc1ccc(-c2csc(N)n2)s1.O=C(O)/C=C\C(=O)O` [Example 7, 2-Amino-4-(5-isopropylaminomethyl-2-thienyl)thiazole maleate], for which, in the series on gastric mucous membrane (3 mg/kg i.p.), the “Percent inhibition (ulcer index, against control group)” value is recorded as 51%. Moreover, the “Percent inhibition (ulcer index, against control group)” value in the series on gastric mucous membrane (10 mg/kg i.p.) came out at 63%. Moreover, in the series on gastric secretion, the “Percent inhibition of acidity of gastric juice” value is recorded as 31% and the “Percent inhibition of volume of gastric juice secretion” value was found to be 80%.
For the molecule `CC(=O)OCC(=O)NCc1ccc(-c2csc(N)n2)s1` [Example 11, 2-amino-4-(5-acetoxyacetylaminomethyl-2-thienyl) thiazole], in “Toxicity” (in vivo), the “survival of mice, intraperitoneal” value is “All mice survived” and the “survival of mice, oral” value is “All mice survived”. The “Percent inhibition (ulcer index, against control group)” value with gastric mucous membrane (1 mg/kg i.p.) turned out to be 73%.
As for `CCOCC(=O)NCc1ccc(-c2csc(N)n2)s1` [Example 14, 2-Amino-4-(5-ethoxyacetylaminomethyl-2-thienyl)thiazole], the “Extention of the survival time (percentage, against control group)” value in the series on hypoxia came out at 204%. In “Toxicity” (in vivo), the “survival of mice, intraperitoneal” value is “All mice survived” and the “survival of mice, oral” value was “All mice survived”. The “Percent inhibition (ulcer index, against control group)” value in the series on gastric mucous membrane (3 mg/kg i.p.) turned out to be 35%. Also, in the series on gastric secretion, the “Percent inhibition of acidity of gastric juice” value is recorded as 39% and the “Percent inhibition of volume of gastric juice secretion” value came out at 53%.
On to `Nc1nc(-c2ccc(CNC(=O)COc3ccccc3)s2)cs1.O=C(O)/C=C\C(=O)O` [Example 15, 2-Amino-4-(5-phenoxyacetylaminomethyl-2-thienyl)thiazole maleate], for which the “survival of mice, intraperitoneal” value in “Toxicity” (300 mg/kg intraperitoneal, five days after administration, ddY-mice) is reported as “All mice survived”. Moreover, in “Toxicity” (1000 mg/kg oral, five days after administration, ddY-mice), the “survival of mice, oral” value was “All mice survived”.
Turning to `Nc1nc(-c2ccc(CCN3CCN(c4cccc(C(F)(F)F)c4)CC3)s2)cs1` [Example 47, 2-Amino-4-[5-(2-(4-(3-trifluoromethylphenyl)-1-piperazinyl)ethyl)-2-thienyl]thiazole], the ED50 in the series with tonic seizure is 21 mg/kg.
Take `CC(Oc1ccccc1)C(=O)NCc1ccc(-c2csc(N)n2)s1.O=C(O)/C=C\C(=O)O` (stereo not drawn) [Example 50, 2-Amino-4-[5-(2-phenoxypropionylaminomethyl)-2-thienyl]thiazole maleate]: in the series with gastric secretion, the “Percent inhibition of acidity of gastric juice” value worked out at 37% and the “Percent inhibition of volume of gastric juice secretion” value stood at 64%.
Regarding `c1ccc(Nc2nc(-c3ccc(CN4CCCCC4)s3)cs2)cc1` [Example 53, 2-Phenylamino-4-(5-piperidinomethyl-2-thienyl)thiazole], the ED50 with tonic seizure was 50 to 100 mg/kg.
With `Nc1nc(-c2ccc(CCN3CCCCC3)s2)cs1.O=C(O)/C=C\C(=O)O` [Example 54, 2-Amino-4-[5-(2-piperidinoethyl)-2-thienyl]thiazole maleate], in the series with tonic seizure, the ED50 lay in the range of 50 to 100 mg/kg.
Take `Nc1nc(-c2ccc(CCN3CCN(c4cccc(Cl)c4)CC3)s2)cs1` [Example 55, 2-Amino-4-[5-(2-(4-(3-chlorophenyl)-1-piperazinyl)ethyl)-2-thienyl]thiazolehydrochloride]: in “Toxicity” (in vivo), the “survival of mice, intraperitoneal” value is reported as “All mice survived” and the “survival of mice, oral” value is on record as “All mice survived”. For the same molecule, the ED50 in the series on tonic seizure turned out to be 50 mg/kg.
For `Nc1nc(-c2ccc(CCN3CCOCC3)s2)cs1` [Example 65, 2Amino-4-[5-(2-morpholinoethyl)-2-thienyl]thiazole], the “Extention of the survival time (percentage, against control group)” value with hypoxia is given as 158%. Moreover, in the series with gastric secretion, the “Percent inhibition of acidity of gastric juice” value was 39% and the “Percent inhibition of volume of gastric juice secretion” value was determined as 61%.

In general, ED50 refers to the dose at which the effect has come halfway, by size or by number of responders.
